From patent publication US20240158408A1, “Nitrogen-Containing Heterocyclic Compound, Pharmaceutical Compositions thereof and Use thereof” (280 Bio, Inc., priority 2022, published 2024)
Where two headings read alike, the source gives them in different places.

Biological target: PI3Kα (Homo sapiens (Human), UniProt P42336)
Assay: ADP-Glo Kinase Assay, PI3Kα enzyme activity inhibition
[1] = ADP-Glo, ATP 25 μM, PIP2 50 μg/mL, 1 hour at room temperature
[2] = PI3Kaα IC50, ADP-Glo, ATP 25 μM, PIP2 50 μg/mL, 1 hour at room temperature

PI3Kα, sequence (P42336 whole entry): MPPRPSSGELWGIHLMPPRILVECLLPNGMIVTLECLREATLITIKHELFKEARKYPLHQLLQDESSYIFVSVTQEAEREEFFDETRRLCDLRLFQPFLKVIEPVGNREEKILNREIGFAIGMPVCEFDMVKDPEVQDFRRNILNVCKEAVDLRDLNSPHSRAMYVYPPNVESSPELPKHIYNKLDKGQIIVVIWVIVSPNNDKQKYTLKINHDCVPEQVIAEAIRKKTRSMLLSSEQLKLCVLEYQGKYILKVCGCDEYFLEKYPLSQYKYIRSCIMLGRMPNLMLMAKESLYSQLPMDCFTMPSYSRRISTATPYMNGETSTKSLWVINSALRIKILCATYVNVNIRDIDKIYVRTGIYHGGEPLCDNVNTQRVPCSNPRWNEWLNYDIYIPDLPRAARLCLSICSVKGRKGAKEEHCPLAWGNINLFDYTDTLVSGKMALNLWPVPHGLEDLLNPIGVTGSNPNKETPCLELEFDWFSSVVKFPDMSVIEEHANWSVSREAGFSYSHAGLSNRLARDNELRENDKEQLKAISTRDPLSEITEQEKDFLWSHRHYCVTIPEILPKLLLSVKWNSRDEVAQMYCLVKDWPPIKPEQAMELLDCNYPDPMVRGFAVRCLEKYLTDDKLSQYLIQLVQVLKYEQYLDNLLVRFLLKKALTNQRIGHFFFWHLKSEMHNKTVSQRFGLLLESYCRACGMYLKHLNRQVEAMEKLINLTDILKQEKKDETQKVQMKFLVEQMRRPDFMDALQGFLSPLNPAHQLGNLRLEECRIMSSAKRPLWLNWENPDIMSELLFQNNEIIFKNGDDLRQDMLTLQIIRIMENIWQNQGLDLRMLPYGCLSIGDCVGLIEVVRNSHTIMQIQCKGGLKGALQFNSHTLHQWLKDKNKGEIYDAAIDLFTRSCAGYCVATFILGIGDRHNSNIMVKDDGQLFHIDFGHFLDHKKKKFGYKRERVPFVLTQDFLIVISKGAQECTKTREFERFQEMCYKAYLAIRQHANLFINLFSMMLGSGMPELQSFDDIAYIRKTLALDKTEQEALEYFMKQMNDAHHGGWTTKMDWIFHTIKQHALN
PI3Kα, sequence (P27986 whole entry partner): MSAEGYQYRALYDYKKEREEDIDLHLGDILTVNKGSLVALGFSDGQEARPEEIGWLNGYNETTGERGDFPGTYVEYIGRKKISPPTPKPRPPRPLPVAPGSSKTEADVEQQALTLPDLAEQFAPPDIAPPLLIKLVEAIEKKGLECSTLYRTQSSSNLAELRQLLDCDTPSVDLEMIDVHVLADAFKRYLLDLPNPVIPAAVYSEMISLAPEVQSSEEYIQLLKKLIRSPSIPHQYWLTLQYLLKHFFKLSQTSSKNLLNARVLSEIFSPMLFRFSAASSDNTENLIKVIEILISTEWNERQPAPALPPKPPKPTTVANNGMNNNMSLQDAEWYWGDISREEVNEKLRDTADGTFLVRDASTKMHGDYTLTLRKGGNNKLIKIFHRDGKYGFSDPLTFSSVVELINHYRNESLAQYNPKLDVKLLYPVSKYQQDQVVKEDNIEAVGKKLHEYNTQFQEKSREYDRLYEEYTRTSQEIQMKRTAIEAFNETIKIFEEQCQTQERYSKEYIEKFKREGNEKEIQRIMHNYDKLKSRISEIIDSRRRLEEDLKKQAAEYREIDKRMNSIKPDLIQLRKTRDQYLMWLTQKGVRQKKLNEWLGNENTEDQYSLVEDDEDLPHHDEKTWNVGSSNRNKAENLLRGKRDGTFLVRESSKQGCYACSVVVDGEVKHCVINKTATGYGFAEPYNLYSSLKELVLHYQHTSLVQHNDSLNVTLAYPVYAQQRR

SMILES | PI3Kaα IC50 [1] | also measured
O=C(Nc1cc(-c2nn(Cc3ccccc3)cc2F)c2c3c1C(c1cc(F)ccc1Cl)NC(=O)N3CC2)c1cc(F)cc(C(F)(F)F)c1 (stereo not drawn) [YL061] | +++ (+++ represents IC50>10 μM) | –
O=C(Nc1cc(Br)c2c3c1C(c1cccc(F)c1)NC(=O)N3CC2)c1cc(F)cc(C(F)(F)F)c1 (stereo not drawn) [YL062] | +++ (+++ represents IC50>10 μM) | –
O=C(Nc1cc(Br)c2c3c1C(c1cc(F)ccc1Br)NC(=O)N3CC2)c1cc(F)cc(C(F)(F)F)c1 (stereo not drawn) [YL063] | ++ (++ represents 250 nM<IC50<=10 μM) | –
O=C(Nc1cc(Br)c2c3c1C(c1ccccc1)NC(=O)N3CC2)c1cc(F)cc(C(F)(F)F)c1 (stereo not drawn) [YL064] | +++ (+++ represents IC50>10 μM) | –
O=C(Nc1cc(Br)c2c3c1C(c1ccccc1Cl)NC(=O)N3CC2)c1cc(F)cc(C(F)(F)F)c1 (stereo not drawn) [YL066] | +++ (+++ represents IC50>10 μM) | –
C#Cc1cc(NC(=O)c2cc(F)cc(C(F)(F)F)c2)c2c3c1CCN3C(=O)NC2c1cc(F)ccc1Cl (stereo not drawn) [YL069] | +++ (+++ represents IC50>10 μM) | –
Cc1n[nH]c(C(F)(F)F)c1-c1cc(NC(=O)c2cc(F)cc(C(F)(F)F)c2)c2c3c1CCN3C(=O)NC2c1cc(F)ccc1Cl (stereo not drawn) [YL072] | ++ (++ represents 250 nM<IC50<=10 μM) | –
Nc1n[nH]cc1-c1cc(NC(=O)c2cc(F)cc(C(F)(F)F)c2)c2c3c1CCN3C(=O)NC2c1cc(F)ccc1Cl (stereo not drawn) [YL073] | – | IC50 [2]: 0.25 to 10 µM
O=C(Nc1cc(-c2c[nH]cn2)c2c3c1C(c1cc(F)ccc1Cl)NC(=O)N3CC2)c1cc(F)cc(C(F)(F)F)c1 (stereo not drawn) [YL074] | – | IC50 [2]: 0.25 to 10 µM
O=C(Nc1cc(O)c2c3c1C(c1cc(F)ccc1Cl)NC(=O)N3CC2)c1cc(F)cc(C(F)(F)F)c1 (stereo not drawn) [YL076] | – | IC50 [2]: 0.25 to 10 µM
Nc1cc(Nc2nccc3c(C(F)(F)F)cc(F)cc23)c2c3c1CCN3C(=O)NC2c1cc(F)ccc1Cl (stereo not drawn) [YL086] | – | IC50 [2]: 0.25 to 10 µM
N=C(N)Nc1cc(NC(=O)c2cc(F)cc(C(F)(F)F)c2)c2c3c1CCN3C(=O)NC2c1cc(F)ccc1Cl (stereo not drawn) [YL088] | – | IC50 [2]: 0.25 to 10 µM
Nc1cc(-c2nc3c(F)cc(C(F)(F)F)cc3[nH]2)c2c3c1CCN3C(=O)NC2c1cc(F)ccc1Cl (stereo not drawn) [YL092] | – | IC50 [2]: 0.25 to 10 µM
O=C(Nc1cc(Br)c2c3c1C(c1cc(Cl)ccc1Cl)NC(=O)N3CC2)c1cc(F)cc(C(F)(F)F)c1 (stereo not drawn) [YL093] | – | IC50 [2]: 0.25 to 10 µM
Nc1cc(NC(=O)c2cc(F)cc(C(F)(F)F)c2)c2c3c1CCN3C(=O)NC2c1cc(Cl)ccc1Cl (stereo not drawn) [YL094] | – | IC50 [2]: 0.25 to 10 µM
Nc1cc(NC(=O)c2cc(F)cc(C(F)(F)F)c2)c2c3c1CCN3C(=O)NC2c1cc(Cl)ccc1C(F)(F)F (stereo not drawn) [YL095] | – | IC50 [2]: 0.25 to 10 µM
Nc1cc(NC(=O)c2cc(F)cc(C(F)(F)F)c2)c2c3c1CCN3C(=O)NC2c1cc(F)ccc1C(F)(F)F (stereo not drawn) [YL096] | – | IC50 (PI3Kaα IC50): 0.25 to 10 µM
Nc1cc(-c2nc3cc(Cl)ccc3[nH]2)c2c3c1CCN3C(=O)NC2c1cc(F)ccc1Cl (stereo not drawn) [YL099] | – | IC50 [2]: 0.25 to 10 µM
Nc1cc(-c2nc3cc(Cl)c(Cl)cc3[nH]2)c2c3c1CCN3C(=O)NC2c1cc(F)ccc1Cl (stereo not drawn) [YL100] | – | IC50 [2]: 0.25 to 10 µM
Cn1nc2c(-c3cn[nH]c3F)cc(NC(=O)c3cc(F)cc(C(F)(F)F)c3)c3c2c1C(=O)NC3c1cc(F)ccc1Cl (stereo not drawn) [YL113] | +++ (+++ represents IC50>10 μM) | –
CCn1nc2ccc(NC(=O)c3cc(F)cc(C(F)(F)F)c3)c3c2c1C(=O)NC3c1cc(F)ccc1Cl (stereo not drawn) [YL115] | – | PI3Kaα IC50: +++ (key: +represents IC50<=250 nM; ++ represents 250 nM<IC50<=10 μM; +++ represents IC50>10 μM)
CC(C)n1nc2ccc(NC(=O)c3cc(F)cc(C(F)(F)F)c3)c3c2c1C(=O)NC3c1cc(F)ccc1Cl (stereo not drawn) [YL118] | – | PI3Kaα IC50: ++ (key: +represents IC50<=250 nM; ++ represents 250 nM<IC50<=10 μM; +++ represents IC50>10 μM)
O=C(Nc1cc(F)cc(C(F)(F)F)c1)Nc1cc(Br)c2c3c1C(c1cc(F)ccc1Cl)NC(=O)N3CC2 (stereo not drawn) [YL122] | +++ (+++ represents IC50>10 μM) | –
O=C(Nc1cc(-c2ccc3ncnn3c2)c2c3c1C(c1cc(F)ccc1Cl)NC(=O)N3CC2)c1cc(F)cc(C(F)(F)F)c1 (stereo not drawn) [YL128] | +++ (+++ represents IC50>10 μM) | –
N#Cc1c(N)cccc1-c1cc(NC(=O)c2cc(F)cc(C(F)(F)F)c2)c2c3c1CCN3C(=O)NC2c1cc(Cl)ccc1Cl (stereo not drawn) [YL132] | +++ (+++ represents IC50>10 μM) | –
C#Cc1c(-c2cc(NC(=O)c3cc(F)cc(C(F)(F)F)c3)c3c4c2CCN4C(=O)NC3c2cc(F)ccc2Cl)ccc2ncnn12 (stereo not drawn) [YL140] | +++ (+++ represents IC50>10 μM) | –
O=C(Nc1cc(-c2ccc3ncnn3c2C(F)(F)F)c2c3c1C(c1cc(F)ccc1Cl)NC(=O)N3CC2)c1cc(F)cc(C(F)(F)F)c1 (stereo not drawn) [YL145] | +++ (+++ represents IC50>10 μM) | –
COc1c(-c2cc(NC(=O)c3cc(F)cc(C(F)(F)F)c3)c3c4c2CCN4C(=O)NC3c2cc(F)ccc2Cl)ccc2ncnn12 (stereo not drawn) [YL146] | +++ (+++ represents IC50>10 μM) | –
N#Cc1c(-c2cc(NC(=O)c3cc(F)cc(C(F)(F)F)c3)c3c4c2CCN4C(=O)NC3c2cc(F)ccc2Cl)cc(F)c2ncnn12 (stereo not drawn) [YL149] | – | IC50 [2]: > 10 µM

Further lines, with some results ahead:

PI3Kaα IC50 [1] | SMILES | also measured
+++ (+++ represents IC50>10 μM) | Cc1ncc(-c2cc(NC(=O)c3cc(F)cc(C(F)(F)F)c3)c3c4c2CCN4C(=O)NC3c2cc(F)ccc2Cl)[nH]1 (stereo not drawn) [YL067] | –
++ (++ represents 250 nM<IC50<=10 μM) | Cc1nc[nH]c1-c1cc(NC(=O)c2cc(F)cc(C(F)(F)F)c2)c2c3c1CCN3C(=O)NC2c1cc(F)ccc1Cl (stereo not drawn) [YL068] | –
+++ (+++ represents IC50>10 μM) | Cc1cc(-c2cc(NC(=O)c3cc(F)cc(C(F)(F)F)c3)c3c4c2CCN4C(=O)NC3c2cc(F)ccc2Cl)n[nH]1 (stereo not drawn) [YL070] | –
++ (++ represents 250 nM<IC50<=10 μM) | O=C(Nc1cc(-c2cn[nH]c2C(F)(F)F)c2c3c1C(c1cc(F)ccc1Cl)NC(=O)N3CC2)c1cc(F)cc(C(F)(F)F)c1 (stereo not drawn) [YL071] | –
+++ (+++ represents IC50>10 μM) | N#Cc1n[nH]cc1-c1cc(NC(=O)c2cc(F)cc(C(F)(F)F)c2)c2c3c1CCN3C(=O)NC2c1cc(F)ccc1Cl (stereo not drawn) [YL126] | –
+++ (+++ represents IC50>10 μM) | O=C(Nc1cc(-c2ccc3ncnn3c2F)c2c3c1C(c1cc(F)ccc1Cl)NC(=O)N3CC2)c1cc(F)cc(C(F)(F)F)c1 (stereo not drawn) [YL129] | –
+++ (+++ represents IC50>10 μM) | N#Cc1ccc(-c2cc(NC(=O)c3cc(F)cc(C(F)(F)F)c3)c3c4c2CCN4C(=O)NC3c2cc(Cl)ccc2Cl)c(N)n1 (stereo not drawn) [YL130] | –
+++ (+++ represents IC50>10 μM) | N#Cc1c(N)cccc1-c1cc(NC(=O)c2cc(F)cc(C(F)(F)F)c2)c2c3c1CCN3C(=O)NC2c1cc(F)ccc1Cl (stereo not drawn) [YL133] | –
+++ (+++ represents IC50>10 μM) | N#Cc1ccc(-c2cc(NC(=O)c3cc(F)cc(C(F)(F)F)c3)c3c4c2CCN4C(=O)NC3c2cc(F)ccc2Cl)c(N)n1 (stereo not drawn) [YL134] | –
++ (++ represents 250 nM<IC50<=10 μM) | N#Cc1ncccc1-c1cc(NC(=O)c2cc(F)cc(C(F)(F)F)c2)c2c3c1CCN3C(=O)NC2c1cc(F)ccc1Cl (stereo not drawn) [YL136] | –
+++ (+++ represents IC50>10 μM) | N#Cc1nc(N)ncc1-c1cc(NC(=O)c2cc(F)cc(C(F)(F)F)c2)c2c3c1CCN3C(=O)NC2c1cc(F)ccc1Cl (stereo not drawn) [YL137] | –
+++ (+++ represents IC50>10 μM) | O=C(Nc1cc(-c2ccc3ncnn3c2Br)c2c3c1C(c1cc(F)ccc1Cl)NC(=O)N3CC2)c1cc(F)cc(C(F)(F)F)c1 (stereo not drawn) [YL139] | –
+++ (+++ represents IC50>10 μM) | N#Cc1ncncc1-c1cc(NC(=O)c2cc(F)cc(C(F)(F)F)c2)c2c3c1CCN3C(=O)NC2c1cc(F)ccc1Cl (stereo not drawn) [YL141] | –
+++ (+++ represents IC50>10 μM) | N#Cc1c(-c2cc(NC(=O)c3cc(F)cc(C(F)(F)F)c3)c3c4c2CCN4C(=O)NC3c2cc(F)ccc2Cl)ccc2[nH]ncc12 (stereo not drawn) [YL142] | –
+++ (+++ represents IC50>10 μM) | N#Cc1nc(F)ncc1-c1cc(NC(=O)c2cc(F)cc(C(F)(F)F)c2)c2c3c1CCN3C(=O)NC2c1cc(F)ccc1Cl (stereo not drawn) [YL143] | –
+++ (+++ represents IC50>10 μM) | O=C(Nc1cc(-c2cnc3[nH]cnc3c2Cl)c2c3c1C(c1cc(F)ccc1Cl)NC(=O)N3CC2)c1cc(F)cc(C(F)(F)F)c1 (stereo not drawn) [YL147] | –
++ (++ represents 250 nM<IC50<=10 μM) | N#Cc1cc(N)ccc1-c1cc(NC(=O)c2cc(F)cc(C(F)(F)F)c2)c2c3c1CCN3C(=O)NC2c1cc(F)ccc1Cl (stereo not drawn) [YL150] | –
+++ (+++ represents IC50>10 μM) | N#Cc1cc(N)ncc1-c1cc(NC(=O)c2cc(F)cc(C(F)(F)F)c2)c2c3c1CCN3C(=O)NC2c1cc(F)ccc1Cl (stereo not drawn) [YL152] | –
+++ (+++ represents IC50>10 μM) | N#Cc1cc2ncnn2cc1-c1cc(NC(=O)c2cc(F)cc(C(F)(F)F)c2)c2c3c1CCN3C(=O)NC2c1cc(F)ccc1Cl (stereo not drawn) [YL153] | –
